Source: patent publication US9566290B2, “Boron-containing small molecules” (Anacor Pharmaceuticals, Inc., priority 2005, dated 2017)
Converted amounts (≈) assume the structure as drawn. “And” between values parts separate entries of the source, which are not always exact repeats. Identical values can stand only once.

Legend:
[1] = test system: Trichophyton rubrum (T. rubrum); experiment: TurChub zone of inhibition assay through full thickness human nail; format: cell-based; settings: 40 μL/cm^2 per day over five days
Description: The aim of the current study was to assess and compare the perungual absorption of C10 in a simple vehicle using MedPharm's TurChub® model (see http://www.medpharm.co.uk; specificaly http://www.medpharm.co.uk/downloads/Skin%20and%20nail%2dec%202003.pdf viewed Feb. 14, 2006). in a full scale experiment. Six replicates involving C10 were conducted and Formulations Y (8% ciclopirox w/w in commercial lacquer) and Z (Loceryl, 5% amorolfine w/v in commercial lacquer) were used as the reference formulations.
A dose of 40 μL/cm^2 of the test compound C10 in 50:50 propylene glycol:ethyl acetate was applied to a full thickness nail sample each day over a total duration of five days. Both the reference formulations were also applied at the same dose.
Placebo, test item C10 in vehicle and the reference formulations Y and Z were tested for their inhibition of Trichophyton rubrum (T. rubrum) growth after penetration through a full thickness human nail using a zone of inhibition measurement.

[2] = Water solubility (table of physicochemical properties)
[3] = test system: T. mentagrophytes; experiment: Minimum fungicidal concentration (MFC); format: cell-based; settings: Trichophyton mentagrophytes, lowest concentration that killed over 90%
From the text: (§1) (C10) is a novel compound in development for use as a topical antifungal treatment. The purpose of this study was to determine the minimum inhibitory concentration (MIC) for (C10) against 19 test strains of fungi including: Aspergillus fumigatus (A. fumigatus), Candida Albicans (C. albicans, both fluconazole sensitive and resistant strains), Candida glabrata (C. glabrata), Candida krusei (C. krusei), Cryptococcus neoformans (C. neoformans), Candida parapsilosis (C. parapsilosis), Candida tropicalis (C. tropicalis), Epidermophyton floccosum (E. floccosum), Fusarium solani (F. solani), Malassezia furfur (M. furfur), Malassezia pachydermatis (M. pachydermatis), Malassezia sympodialis (M. sympodialis), Microsporum audouinii (M. audouinii), Microsporum canis (M. canis), Microsporum gypseum (M. gypseum), Trichophyton mentagrophytes (T. mentagrophytes), Trichophyton rubrum (T. rubrum), Trichophyton tonsurans (T. tonsurans). Fungal growth was evaluated after exposure to different concentrations of (C10). In addition, the MIC for (C10) against T. rubrum in the presence of 5% keratin powder and the minimum fungicidal concentration (MFC) for (C10) against T. rubrum and T. mentagrophytes were also determined. Ciclopirox and/or terbinafine and/or fluconazole and/or itraconazole were used as comparators and tested in a similar manner. These studies were conducted at NAEJA Pharmaceutical, Inc. […]

[4] = test system: T. rubrum; experiment: Minimum fungicidal concentration (MFC); format: cell-based; settings: Trichophyton rubrum, lowest concentration that killed over 90%
From the text: as §1

[5] = test system: S. cerevisiae diploid (mutant strain/ATCC200901); experiment: MIC of diploids from yeast mating experiment; format: cell-based, Saccharomyces cerevisiae
Description: The minimal inhibitory concentration (MIC) was essentially performed following the NCCLS guidelines outlined in the M27 protocol with the exception of using YPD or synthetic defined media (SDM).
The haploid mutants derived from S. cerevisiae ATCC201388 were mixed with S. cerevisiae ATCC 200901, and were incubated on YPD agar plates at 30° C. for 4 h. The cell mixture was streaked out on synthetic defined media agar (BD, NJ USA) without the amino acids lysine and methionine, which are selective for diploids.

Compound: OB1OCc2cc(F)ccc21 [C10, 5-fluorobenzo[c][1,2]oxaborol-1(3H)-ol]
- zone of inhibition, result in words ([1]; full thickness nail): superior results vs. the commercial reference formulations Y and Z
- Zones of inhibition ([1]; C10 10% w/v solution, second experiment (FIG. 7), six cells): 74% and 86% and 100% and 82% and 84%
- solubility [2]: > 100 µg/mL
- MFC [3]: 16 µg/mL (≈ 105 µM)
- MFC [4]: 8 µg/mL (≈ 52.7 µM)
- MIC ([5]; Saccharomyces cerevisiae, ATCC200901): 32 µg/mL
- MIC ([5]; Saccharomyces cerevisiae, ATCC 200901 / ATCC 201388): 0.5 µg/mL
- MIC ([5]; diploid (G)/ATCC200901): 32 µg/mL
- MIC ([5]; diploid (H)/ATCC200901): 32 µg/mL
- MIC of diploids from C10 mutants versus diploid from parental strain ([5]; three mutants mated with ATCC 200901): 64 fold
